Source: PubChem BioAssay AID270 (DTP/NCI, 2004)
Where “and” joins values, the source holds several entries; their conditions need not be identical. Equal entries are not always repeated. Results filed as inconclusive are left out. *1 amine or outer side, *2 acyl side, *3 side chain or, on linkers, in order; H or OH if unused. Where a SMILES comes first, the peptide text is derived from it. Bridges are numbered along the chain shown (N, C = ends). Roman numbers before positions name the chains, in order. [ ]: non-standard residue; d: D form. Actinocin(1to9) = Cc1c2oc3c(C)ccc(C(=O)[*:2])c3nc-2c(C(=O)[*:1])c(N)c1=O; NMeV = CN[CH](C(=O)O)C(C)C; Sar = CNCC(=O)O

System: BDF1 mice, s.c. Lewis lung carcinoma, T/C %
Assay: NCI In Vivo Anticancer Drug Screen. Data for tumor model Lewis Lung Carcinoma (subcutaneous) in B6D2F1 (BDF1) mice
Outline: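 Readout: survival or tumor size, expressed as treated (T) over vehicle control (C). Transplantable tumor implanted in mice; compound given to the treated group.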

[1] = endpoint: median survival time, dose: 200.0 mg/kg/injection, schedule: Q01DX005 (ip), vehicle: saline with Tween-80, higher = longer survival

## CCC(C)C1NC(=O)C(NC(=O)c2c3nc4c(C(=O)NC5C(=O)NC(C(C)C)C(=O)N6CCCC6C(=O)N(C)CC(=O)N(C)C(C(C)C)C(=O)OC5C)ccc(C)c4oc-3c(C)c(=O)c2N)C(C)OC(=O)C(C(C)C)N(C)C(=O)CN(C)C(=O)C2CCCN2C1=O (stereo unspecified) (I: TIP[Sar][NMeV] / II: TVP[Sar][NMeV]; ester I:1-I:C, II:1-II:C; linker I:N-II:N via Actinocin(1to9); configuration not given here)
endpoint: median survival time, dose: 12.5 micrograms/kg/injection, schedule: Q01DX009 (ip), vehicle: water, higher = longer survival
  T/C: 111 % of control
endpoint: median survival time, dose: 25.0 micrograms/kg/injection, schedule: Q01DX009 (ip), vehicle: water, higher = longer survival
  T/C: 112 % of control
endpoint: median survival time, dose: 50.0 micrograms/kg/injection, schedule: Q01DX009 (ip), vehicle: water, higher = longer survival
  T/C: 112 % of control
endpoint: median survival time, dose: 75.0 micrograms/kg/injection, schedule: Q04DX003 (ip), vehicle: water, higher = longer survival
  T/C: 100 % of control
endpoint: median survival time, dose: 150.0 micrograms/kg/injection, schedule: Q04DX003 (ip), vehicle: water, higher = longer survival
  T/C: 108 % of control
endpoint: median survival time, dose: 300.0 micrograms/kg/injection, schedule: Q04DX003 (ip), vehicle: water, higher = longer survival
  T/C: 154 % of control

## c1ccc(OP(Oc2ccccc2)Oc2ccccc2)cc1
endpoint: mean tumor weight, dose: 37.0 mg/kg/injection, schedule: Q01DX011 (ip), vehicle: other, higher = larger tumour
  T/C: 110 % of control
endpoint: mean tumor weight, dose: 55.0 mg/kg/injection, schedule: Q01DX011 (ip), vehicle: other, higher = larger tumour
  T/C: 103 % of control
endpoint: mean tumor weight, dose: 83.0 mg/kg/injection, schedule: Q01DX011 (ip), vehicle: other, higher = larger tumour
  T/C: 91 % of control
endpoint: mean tumor weight, dose: 125.0 mg/kg/injection, schedule: Q01DX011 (ip), vehicle: other, higher = larger tumour
  T/C: 79 % of control

## CCN(CC)CCCC(C)Nc1c2ccc(Cl)cc2nc2cc(Cl)ccc12 (stereo unspecified)
endpoint: median survival time, dose: 12.5 mg/kg/injection, schedule: Q01DX009 (ip), vehicle: Klucel (hydroxypropylcellulose) (HPC), higher = longer survival
  T/C: 105 % of control
endpoint: median survival time, dose: 25.0 mg/kg/injection, schedule: Q01DX009 (ip), vehicle: Klucel (hydroxypropylcellulose) (HPC), higher = longer survival
  T/C: 97 % of control
endpoint: median survival time, dose: 50.0 mg/kg/injection, schedule: Q01DX009 (ip), vehicle: Klucel (hydroxypropylcellulose) (HPC), higher = longer survival
  T/C: 105 % of control

## CCC[CH2][Sn]1([CH2]CCC)[O]OC(c2ccc(C)cc2)[O]1 (stereo unspecified)
endpoint: median survival time, dose: 0.19 mg/kg/injection, schedule: Q01DX009 (ip), vehicle: saline with Tween-80, higher = longer survival
  T/C: 98 % of control
endpoint: median survival time, dose: 0.75 mg/kg/injection, schedule: Q01DX009 (ip), vehicle: saline with Tween-80, higher = longer survival
  T/C: 107 % of control
endpoint: median survival time, dose: 1.5 mg/kg/injection, schedule: Q01DX009 (ip), vehicle: saline with Tween-80, higher = longer survival
  T/C: 98 % of control
endpoint: median survival time, dose: 3.0 mg/kg/injection, schedule: Q01DX009 (ip), vehicle: saline with Tween-80, higher = longer survival
  T/C: 119 % of control
endpoint: median survival time, dose: 3.13 mg/kg/injection, schedule: Q01DX009 (ip), vehicle: saline with Tween-80, higher = longer survival
  T/C: 121 % of control

## NC1=NC(=S)C2N=C(N=Nc3ccc(C(=O)NC(CCC(=O)O)C(=O)O)cc3)N=C2N1 (stereo unspecified)
endpoint: median survival time, dose: 0.2 mg/kg/injection, schedule: Q01DX009 (ip), vehicle: Klucel (hydroxypropylcellulose) (HPC), higher = longer survival
  T/C: 97 % of control
endpoint: median survival time, dose: 0.4 mg/kg/injection, schedule: Q01DX009 (ip), vehicle: Klucel (hydroxypropylcellulose) (HPC), higher = longer survival
  T/C: 93 % of control
endpoint: median survival time, dose: 0.78 mg/kg/injection, schedule: Q01DX009 (ip), vehicle: Klucel (hydroxypropylcellulose) (HPC), higher = longer survival
  T/C: 110 % of control

## C[C@]12C=CC(=O)C=C1CC[C@@H]1[C@@H]2CC[C@]2(C)OC(=O)CC[C@@H]12
endpoint: mean tumor weight, dose: 12.5 mg/kg/injection, schedule: Q01DX011 (sc), vehicle: steriod suspending solution, higher = larger tumour
  T/C: 75 % of control
endpoint: mean tumor weight, dose: 25.0 mg/kg/injection, schedule: Q01DX011 (sc), vehicle: steriod suspending solution, higher = larger tumour
  T/C: 102 % of control
endpoint: mean tumor weight, dose: 50.0 mg/kg/injection, schedule: Q01DX011 (sc), vehicle: steriod suspending solution, higher = larger tumour
  T/C: 53 % of control
endpoint: mean tumor weight, dose: 100.0 mg/kg/injection, schedule: Q01DX011 (sc), vehicle: steriod suspending solution, higher = larger tumour
  T/C: 97 % of control

## CCC1CCC(NC(=O)N(CCF)N=O)CC1 (stereo unspecified)
endpoint: median tumor weight (est.), dose: 50.0 mg/kg/injection, schedule: Q01DX001 (ip), vehicle: saline with Tween-80, higher = larger tumour
  T/C: 62 % of control

## CC(C)NC(=O)c1ccc(N/N=[N+](/C)[O-])cc1
endpoint: median survival time, dose: 6.25 mg/kg/injection, schedule: Q01DX005 (ip), vehicle: saline with Tween-80, higher = longer survival
  T/C: 105 % of control
endpoint: median survival time, dose: 12.5 mg/kg/injection, schedule: Q01DX005 (ip), vehicle: saline with Tween-80, higher = longer survival
  T/C: 102 % of control
endpoint: median survival time, dose: 25.0 mg/kg/injection, schedule: Q01DX005 (ip), vehicle: saline with Tween-80, higher = longer survival
  T/C: 106 % of control
endpoint: median survival time, dose: 50.0 mg/kg/injection, schedule: Q01DX005 (ip), vehicle: saline with Tween-80, higher = longer survival
  T/C: 90 % of control and 103 % of control
endpoint: median survival time, dose: 100.0 mg/kg/injection, schedule: Q01DX005 (ip), vehicle: saline with Tween-80, higher = longer survival
  T/C: 111 % of control and 112 % of control
[1]
  T/C: 110 % of control

## CC(=O)OC/C=C(C)/C=C/C=C(C)/C=C/C1=C(C)CCCC1(C)C
[1]
  T/C: 100 % of control

## O=P(O)(NCCCl)NCCCl
endpoint: median survival time, dose: 12.5 mg/kg/injection, schedule: Q01DX001 (ip), vehicle: saline, higher = longer survival
  T/C: 114 % of control and 115 % of control
endpoint: median survival time, dose: 25.0 mg/kg/injection, schedule: Q01DX001 (ip), vehicle: saline, higher = longer survival
  T/C: 113 % of control and 114 % of control
endpoint: median survival time, dose: 100.0 mg/kg/injection, schedule: Q01DX001 (ip), vehicle: saline, higher = longer survival
  T/C: 200 % of control and 243 % of control
